Active and inactive are the calls of the source.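 How the source made its calls: active means half-maximal concentration for changing protein binding to DNA, from the fitted dose curve, below 10 micromolar; inactive means the rest.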

89 molecules from PubChem BioAssay AID1259321 (Sanford-Burnham Center for Chemical Genomics, 2017) can be followed below.

This assay deals with Nuclear receptor subfamily 1 group D member 1 (Homo sapiens) (UniProt P20393). As to the kind of experiment: Rev-erbα–DNA interaction modulators – biochemical, FITC-DNA, fluorescence polarization, dose response (AID 1259321). As to conditions: Rev-erb alpha-FITC-DNA binding.
Nuclear receptor subfamily 1 group D member 1 (Homo sapiens), sequence (P20393 whole entry, looked up): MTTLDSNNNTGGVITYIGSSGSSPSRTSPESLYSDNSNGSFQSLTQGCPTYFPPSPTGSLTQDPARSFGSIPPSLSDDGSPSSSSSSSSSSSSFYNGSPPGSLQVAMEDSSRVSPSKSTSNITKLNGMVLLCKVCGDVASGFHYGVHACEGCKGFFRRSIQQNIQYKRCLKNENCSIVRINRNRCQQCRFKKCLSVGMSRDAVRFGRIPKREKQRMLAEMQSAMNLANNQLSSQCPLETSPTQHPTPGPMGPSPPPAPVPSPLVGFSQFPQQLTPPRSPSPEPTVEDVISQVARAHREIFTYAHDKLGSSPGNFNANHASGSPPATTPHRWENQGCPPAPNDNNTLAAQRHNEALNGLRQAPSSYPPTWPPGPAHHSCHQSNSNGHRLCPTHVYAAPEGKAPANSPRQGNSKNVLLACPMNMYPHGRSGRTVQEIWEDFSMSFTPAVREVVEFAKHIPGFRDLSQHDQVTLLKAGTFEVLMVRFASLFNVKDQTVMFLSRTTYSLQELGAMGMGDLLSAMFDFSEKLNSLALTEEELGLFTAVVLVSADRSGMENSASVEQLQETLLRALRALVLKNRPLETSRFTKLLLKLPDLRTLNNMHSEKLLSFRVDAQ

Broadly, the IC50 is the concentration that inhibits the measured activity by half. Regarding `CC(=O)c1cc2c(cc1N/C(=N/S(=O)(=O)c1ccccc1)c1ccc(Cl)cc1)OCO2`, the IC50 entry was “inactive”. `COc1ccc(-c2cc(-c3ccc(C)cc3)nc(SCc3nnc(-c4ccccc4)o3)c2C#N)cc1OC`: the IC50 is 8.78 µM. The figure for `CCc1nc2ccccc2c(C(=O)OCc2nc3ccccc3c(=O)[nH]2)c1C` is > 40 µM (inactive); for `CC(=O)NC(=S)Nc1ccc2oc(-c3cc(F)c(F)cc3Cl)nc2c1` it is 3.33 µM; for `CCOc1ccccc1NC(=O)CSc1nc(N)c(C#N)cc1C#N` it is “inactive”.

As for `CCOc1ccc2nc(SCC(=O)N3c4ccccc4Sc4ccccc43)c(C#N)cc2c1`, the IC50 was 6.88 µM. The result for `CCN1/C(=C/c2ccc3cc(C)cc(C)c3[n+]2CC)Sc2cc(C)ccc21` reads > 40 µM (inactive); that for `N#Cc1c(N)nc2c3c(sc(=N)c2c1N)NC(=O)CC3c1ccccc1` (centres undefined), > 40 µM (inactive). Regarding `Cc1cccc2cc(C#N)c(NCCNC(=O)NC3CCCCC3)nc12`, the IC50 result is “inactive”. In the case of `COc1ccc(-c2c(C#N)c(N)nc(Sc3ccc(Cl)cc3)c2C#N)cc1`, the IC50 is 3.66 µM.

As for `CCCCCCCn1c(=O)c(C(=O)Nc2cnccn2)c(O)c2ccccc21`, the IC50 entry is “inactive”. Consider `COc1ccccc1-c1ccc2c(c1)C(C)(Cc1ccccc1C#N)C(=O)N2` (centres undefined), for which the IC50 is 7.13 µM. The result for `N#CC(C#N)=C1C=C2C=C(N3CCCCCC3)CCC2CC1` (centres undefined) reads 4.8 µM; that for `COc1cccc(Nc2nc(-c3ccccc3O)nc3ccccc23)c1`, 9.08 µM; that for `CCN(CC)c1ccc(/C=C(/C#N)c2nc3ccccc3[nH]2)c(OC(C)C)c1`, 3.45 µM. The result for `COc1ccc(-c2oc3ccccc3c(=O)c2OC(=O)c2ccc(C)cc2)cc1` reads “inactive”. The result for `O=C(CN1CCCCC1)Nc1c2c(nc3ccccc13)N(c1ccccc1)CC2` reads 3.26 µM. As for `COc1ccc(-c2ccc3c(c2)c(Sc2ccccc2)c(-c2cc(OC)cc(OC)c2)n3C)cc1`, the IC50 is 6.89 µM. For `CC(=O)c1ccccc1NC(=O)c1cc(S(=O)(=O)N2CCOCC2)ccc1N1CCCC1`, the IC50 is 4.33 µM. Take `Clc1ccccc1-c1nn2c(-c3cc(-c4ccccc4)n[nH]3)nnc2s1`: the IC50 is > 40 µM (inactive). Regarding `O=C(NCc1ccccc1)C(c1cc2ccccc2o1)n1c(=O)c(-c2ccccc2)nc2ccccc21` (centres undefined), the IC50 was > 40 µM (inactive).

Turning to `COc1ccc(C(=O)NCCNc2nc3cc(C)cc(C)c3cc2C#N)nc1`, the IC50 entry is “inactive”. The figure for `COc1cccc(NC(=O)CSc2ncnc3c2oc2ccccc23)c1` is > 40 µM (inactive); for `O=c1c2ccccc2sc2ccc(Cl)cc12` it is 3.38 µM. The result for `CCN1/C(=C/c2ccc3cc(C)ccc3[n+]2CC)Sc2cc(C)ccc21` reads > 40 µM (inactive). The result for `c1ccc(-c2nc(SCc3nc4ccccc4[nH]3)c3oc4ccccc4c3n2)cc1` reads 2.4 µM; that for `Cc1cc(C)c2nc(SCC(=O)N3CC(=O)Nc4ccccc43)c(C#N)cc2c1`, 7.22 µM; that for `COc1ccc2c(c1)c(/C=C/c1cc[n+](C)cc1)cn2C`, “inactive”.

As for `COc1ccc2nc(SCc3cccnc3)c(C#N)cc2c1`, the IC50 is 2.51 µM. The entry for `Cc1ccc(CNC(=O)c2cc3c(=O)n(C)c4ccccc4c3n2C)cc1` is “inactive”; for `Cc1cc(C)c2c(N)c(C(=O)N/N=C/c3cccs3)sc2n1` it is 5.4 µM; for `COc1ccc(S(=O)(=O)N2CCCCCC2)cc1C(=O)Nc1ccc(C)cn1` it is > 40 µM (inactive). The result for `COc1cc2c(cc1OC)CN(C(=O)CSc1nc(N)c(C#N)cc1C#N)CC2` reads “inactive”; that for `Cc1cnc(NC(=O)c2cc3c(C)nn(-c4ccccc4)c3s2)s1`, 3.83 µM.

`CCOC(=O)c1c(NC(=O)C2CCCN(S(=O)(=O)c3ccccc3)C2)sc2c1CCCC2` (centres undefined): the IC50 was 3.46 µM.

As to `COc1cccc(CNC(=O)C[C@H]2CC[C@H]3[C@@H](COc4ccc(NC(=O)c5cccs5)cc4C(=O)N3C)O2)c1`, the IC50 is 7.17 µM.

Take `CN(C)c1ccc(N=Nc2ccccc2C(=O)OCC(=O)NCC2CCCCC2)cc1`: the IC50 was 7.85 µM. The entry for `CC1(C)Cc2c(sc3c2c(N)nc(=S)n3Cc2ccc(Br)cc2)CO1` is “inactive”; for `Cc1ccc(C)c(-n2c(-c3ccc(Br)cc3)csc2=NC(=O)c2ccccc2F)c1` it is “inactive”. The result for `CCCNC(=O)Nc1ccc2c(c1)C(=O)N(C)[C@H]1CC[C@H](CC(=O)NCC3CCCCC3)O[C@@H]1CO2` reads > 40 µM (inactive). The figure for `CCOC(=O)/C(C#N)=C/C=C1\C=Cc2ccccc2N1CC` is > 40 µM (inactive). Take `COc1ccccc1NC(=O)c1cnc(SCC(=O)NCCc2ccccc2)n(C)c1=O`: the IC50 is 4.36 µM.

In the case of `CSc1nnc(N2C(=O)C(O)=C(C(=O)c3ccco3)C2c2cccc(Cl)c2)s1` (centres undefined), the IC50 entry is “inactive”. On to `O=C(Nc1nnc(SCc2ccccc2)s1)c1cc2c(s1)CCCC2`, for which the IC50 was 2.33 µM. The figure for `Cc1[nH]nc2nc(SCC(=O)NCCC3=CCCCC3)n(-c3ccc(Br)cc3)c(=N)c12` is > 40 µM (inactive); for `O=C(CSc1nnc2scc(-c3ccccc3)n12)Nc1nsc(-c2ccccc2)n1` it is > 40 µM (inactive).

`Cc1ccc(C(=O)Nc2nc3ccccc3c(=O)s2)cc1`: the IC50 is 0.599 µM. The result for `CCCCCNC(=O)c1c[nH]c2ccc(S(=O)(=O)N3CCC4(CC3)OCCO4)cc2c1=O` reads “inactive”. The figure for `COc1cccc(C(=O)n2ccc3ccc(-c4ccc5ccn(C(=O)c6cccc(OC)c6)c5c4)cc32)c1` is 3.26 µM; for `N#Cc1cc(C#N)c(N2CCN(c3cccc(Cl)n3)CC2)nc1N` it is 5.79 µM. The result for `COc1ccccc1CNC(=O)COC(=O)c1cccnc1SCC(=O)NCc1ccccc1OC` reads 5.05 µM; that for `COc1ccc(-n2nc3c(N4CCC(C(=O)NCc5ccccc5)CC4)nnc(C)c3c2C)cc1`, > 40 µM (inactive). On to `COc1ccc(-c2c(C#N)c(SCC(N)=O)nc3c2CCCC3)cc1`, for which the IC50 is 3.93 µM.

Consider `Cc1ccc2c(c1)c(/C=C/c1cc[n+](C)cc1)c(C)n2C`, for which the IC50 was > 40 µM (inactive). The figure for `C=CCn1c(SCC(=O)Nc2cc(C)on2)nc2sc(C)c(C)c2c1=O` is 5.14 µM; for `C=CCNC(=O)c1ccc(Cn2c(=S)[nH]c3cc4c(cc3c2=O)OCO4)cc1` it is “inactive”; for `O=[N+]([O-])c1ccc(O)c(-c2cc(C(F)(F)F)nc(-c3ccccc3)n2)c1` it is > 40 µM (inactive). The result for `O=C(Nc1ccc2c(c1)C(=O)NC2=O)c1ccc2ncsc2c1` reads 2.29 µM; that for `O=C(Nc1ccc2oc(-c3cccc(F)c3)nc2c1)c1ccccc1F`, 2.87 µM.

`COc1ccc(NC(=O)COC(=O)c2ccc3c(c2)OCO3)c(OC)c1`: the IC50 is > 40 µM (inactive). With `CCCCCn1c(=O)c(C(=O)Nc2ccccc2Cl)c(O)c2ccccc21`, the IC50 is > 40 µM (inactive).

Consider `Cc1ccc(-n2c(SCC(=O)NCc3ccco3)nc3sc4c(c3c2=O)CC(C)(C)SC4)cc1`, for which the IC50 is 1.93 µM. The figure for `C/C(=N\N(Cc1ccccc1)c1ccccc1)c1ccncc1` is 6.97 µM; for `O=C(CCCC(=O)OCC(=O)c1cccs1)Nc1ccc(Oc2ccccc2)cc1` it is “inactive”; for `Cc1ccc2nc(SCC(=O)Nc3ccc4sc(C)nc4c3)c(C#N)cc2c1` it is > 40 µM (inactive).

Consider `Cc1cc(C)cc(NC(=S)/C(=C(\[O-])c2ccc(Cl)cc2Cl)[n+]2ccc(C(C)(C)C)cc2)c1`, for which the IC50 is > 40 µM (inactive). The figure for `COc1ccc(-c2nc(NC(=O)c3ccc(OCC(=O)Nc4ccc(F)cc4)c(OC)c3)sc2C)cc1` is > 40 µM (inactive); for `O=C1c2cccc3c(N4CCCCC4)ccc(c23)C(=O)N1c1ccccc1O` it is 5.32 µM; for `O=c1c2ccccc2ncn1-c1ccc(Cl)c(Cl)c1` it is > 40 µM (inactive). The figure for `COc1ccc(OC)c(Nc2nc(-c3ccccc3O)nc3ccccc23)c1` is 9.61 µM; for `Cc1cc(C)n2nc(-c3ccc(Cl)cc3)cc2n1` it is 1.64 µM. For the molecule `CN1C(=O)C(=Cc2ccc(N3CCCCC3)o2)C(=O)N(C)C1=S`, the IC50 result was “inactive”.

Take `Cc1nc(N2CCC(C)CC2)c2c(C)c(C(=O)Nc3ccc(C)c(F)c3)sc2n1`: the IC50 is > 40 µM (inactive). The figure for `Cc1ccc2[nH]cc(S(=O)(=O)c3ccc(C)c(C)c3)c(=O)c2c1` is > 40 µM (inactive). The result for `O=C(c1cc2cc(Br)ccc2[nH]1)N1CCc2ccccc21` reads 9.54 µM; that for `COCCn1c(=NC(=O)c2ccco2)sc2cc(C(=O)OC)ccc21`, 4.87 µM.

On to `O=C(NCc1cccc(F)c1)c1cccc2c1C(=O)c1ccc(N3CCOCC3)cc1S2(=O)=O`, for which the IC50 is 3.69 µM.

On to `O=[N+]([O-])c1ccc(N2CCCC2)c2ccncc12`, for which the IC50 is > 40 µM (inactive). The figure for `CCc1nnc(NC(=O)CSc2nc3cc4c(cc3cc2C)OCCO4)s1` is 7.62 µM; for `N#Cc1ccccc1Sc1ccccc1C(=O)OCC(=O)NC1CCCCC1` it is “inactive”.

Consider `COc1cccc(-c2nc(CS(=O)(=O)CC(=O)NCc3ccc(Cl)cc3)c(C)o2)c1`, for which the IC50 is > 40 µM (inactive). In the case of `CCOC(=O)N1CCN(c2ncnc3c2oc2nc(C(C)C)c4c(c23)CCC4)CC1`, the IC50 was 5.3 µM. The figure for `COC(=O)c1ccc(NC(=O)c2cn(-c3ccccc3)nc2-c2ccncc2)cc1` is > 40 µM (inactive); for `COc1cc(SC)ccc1C(=O)Nc1ccc(Cl)cn1` it is 4.58 µM; for `O=C(CSc1ncnc2c1oc1ccccc12)NCc1ccc(F)cc1` it is 1.26 µM. The result for `CC1=NCCN1S(=O)(=O)c1c(C(C)C)cc(C(C)C)cc1C(C)C` reads > 40 µM (inactive). The figure for `Cc1ccc(-n2c(N)c(C#N)c(-c3ccc(Cl)cc3)c(C#N)c2=O)cc1` is 4.59 µM. With `O=C(N=c1ccn(-c2nc3ccccc3nc2NS(=O)(=O)c2ccccc2)cc1)c1cccs1`, the IC50 entry was “inactive”. The result for `CC(C)NC(=O)CSc1nc(-c2cccs2)cc(-c2ccccc2)c1C#N` reads 3.27 µM.
